# In patent publication US20080200442A1, “Compositions and Methods for Treating, Reducing, Ameliorating, or Preventing Infections of the Ear or Upper Respiratory Tract” (priority 2007, published 2008):
# Test system: Ofloxacin-resistant Enterobacteriaceae
# Assay: organism not typed
# Format: cell-based
row,SMILES,MIC90
1,CC1COc2c(N3CCN(C)CC3)c(F)cc3c(=O)c(C(=O)O)cn1c23 (stereo not drawn) [Ofloxacin],64 µg/mL
2,CCn1cc(C(=O)O)c(=O)c2cc(F)c(N3CCNCC3)cc21 [Norfloxacin],128 µg/mL
3,NC1CCCCN(c2c(F)cc3c(=O)c(C(=O)O)cn(C4CC4)c3c2Cl)C1 (stereo not drawn) [Compound Having Formula III],16 µg/mL
